Assay results reported in patent US20110269817A1, “COMPOSITIONS AND METHODS RELATED TO SIRT1 FUNCTION” (The Regents of the University of California, priority 2008, published 2011).

Legend:
[1] = tested on: Per2 and Dbp gene expression in MEFs; experiment: Per2 and Dbp gene expression in serum-entrained MEFs treated with FK866, q-PCR; format: cell-based, mouse; conditions: MEFs pretreated with 10 nM FK866, then serum-stimulated
Procedure: Each quantitative real-time RT-PCR was performed using the Chromo4 real time detection system (BIO-RAD). […] The reaction was first incubated at 95° C. for 3 min, followed by 40 cycles at 95° C. for 30 s and 60° C. for 1 min.

BMAL1 Lys537 acetylation = BMAL1 Lys537 acetylation profile in serum-entrained MEFs treated with FK866; format: cell-based, mouse; conditions: cultured MEFs
Procedure: This illustrates Nampt modulation of the circadian clock. Panel A depicts Pert and Dbp gene expression levels in serum-entrained MEFs treated with 10 nM FK866 or EtOH as control (solvent:ctrl) were analyzed by q-PCR. The highest value for each gene in EtOH treated MEFs was set to 1. All data presented are the means±SEM of three independent samples. […] Cell extracts prepared from indicated time points were processed to visualize BMAL1 acetylation using the anti-acetyl specific BMAL1 antibody as described herein. Input samples were probed with anti-BMAL1 and anti-GAPDH antibodies. Panel C is a schematic representation of the transcription-enzymatic interplay by which the circadian machinery governs the intracellular levels of NAD^+. The NAD^+-dependent deacetylase SIRT1 is thereby controlling the oscillatory synthesis of its own coenzyme.
NAMPT inhibitor “FK866” treatment experiments MEFs in growing phase (−50% confluent) were pre-treated with 10 nM FK866 dissolved in ethanol/serum-free DMEM 16 hr prior to high serum treatment. After 2 hr serum treatment, medium were changed to serum-free medium containing 10 nM FK866. […]

Nampt = Nampt (Homo sapiens, UniProt P43490); conditions: literature (ref. 30); cited from earlier work
Sequence of Nampt (P43490 whole entry): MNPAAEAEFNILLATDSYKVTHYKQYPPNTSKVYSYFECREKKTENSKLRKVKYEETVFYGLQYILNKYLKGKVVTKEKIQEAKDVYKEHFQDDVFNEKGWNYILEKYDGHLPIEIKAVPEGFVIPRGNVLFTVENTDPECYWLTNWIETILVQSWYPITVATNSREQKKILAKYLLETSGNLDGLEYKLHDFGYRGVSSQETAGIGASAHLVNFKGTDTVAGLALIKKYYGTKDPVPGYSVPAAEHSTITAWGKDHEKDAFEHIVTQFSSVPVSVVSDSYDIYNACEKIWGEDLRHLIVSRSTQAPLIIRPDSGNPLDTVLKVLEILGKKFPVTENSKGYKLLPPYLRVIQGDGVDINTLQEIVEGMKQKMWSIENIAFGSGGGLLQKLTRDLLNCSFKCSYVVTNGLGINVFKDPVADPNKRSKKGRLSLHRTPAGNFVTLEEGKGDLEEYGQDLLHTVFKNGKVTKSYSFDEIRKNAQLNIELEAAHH

In the case of `O=C(/C=C/c1cccnc1)NCCCCC1CCN(C(=O)c2ccccc2)CC1` [FK866], the “increase of amplitude of oscillation (Per2 and Dbp), average” value [1] is reported as 30-40%, the “onset of the circadian peak for both genes (Per2 and Dbp), earlier by” value [1] is reported as 3 to 4 h and the “BMAL1 acetylation at K537” value (BMAL1 Lys537 acetylation; 10 nM FK866) is reported as “heavily increased and displays a broader peak”. For the same compound, the “effect on BMAL1 protein levels” value (BMAL1 Lys537 acetylation; 10 nM FK866, any time of the circadian cycle) was “no major effect” and the “inhibition of Nampt enzymatic activity” value (Nampt) was “specifically inhibits Nampt enzymatic activity”.
